Measured values from publication PMC6014686, “Thienopyrimidinone Based Sirtuin-2 (SIRT2)-Selective Inhibitors Bind in the Ligand Induced Selectivity Pocket” (Journal of Medicinal Chemistry, 2017).

Experiments:
[1] = system: acetylated (lysine-40) α-tubulin in MCF-7 cells; assay: Tubulin acetylation assay, Western blot in MCF-7 cells with TSA; conditions: 0-50 μM for 24 h with 50 nM TSA, N = 3
[2] = system: Parkinsonian neuronal cell death model; set-up: method as in PMID 25395356; conditions: cited from earlier work
SIRT1 = target: T1, SIRT1 (Homo sapiens, UniProt Q96EB6); set-up: method as in PMID 25395356; conditions: reported earlier; cited from earlier work
T1 sequence (Q96EB6 1-747): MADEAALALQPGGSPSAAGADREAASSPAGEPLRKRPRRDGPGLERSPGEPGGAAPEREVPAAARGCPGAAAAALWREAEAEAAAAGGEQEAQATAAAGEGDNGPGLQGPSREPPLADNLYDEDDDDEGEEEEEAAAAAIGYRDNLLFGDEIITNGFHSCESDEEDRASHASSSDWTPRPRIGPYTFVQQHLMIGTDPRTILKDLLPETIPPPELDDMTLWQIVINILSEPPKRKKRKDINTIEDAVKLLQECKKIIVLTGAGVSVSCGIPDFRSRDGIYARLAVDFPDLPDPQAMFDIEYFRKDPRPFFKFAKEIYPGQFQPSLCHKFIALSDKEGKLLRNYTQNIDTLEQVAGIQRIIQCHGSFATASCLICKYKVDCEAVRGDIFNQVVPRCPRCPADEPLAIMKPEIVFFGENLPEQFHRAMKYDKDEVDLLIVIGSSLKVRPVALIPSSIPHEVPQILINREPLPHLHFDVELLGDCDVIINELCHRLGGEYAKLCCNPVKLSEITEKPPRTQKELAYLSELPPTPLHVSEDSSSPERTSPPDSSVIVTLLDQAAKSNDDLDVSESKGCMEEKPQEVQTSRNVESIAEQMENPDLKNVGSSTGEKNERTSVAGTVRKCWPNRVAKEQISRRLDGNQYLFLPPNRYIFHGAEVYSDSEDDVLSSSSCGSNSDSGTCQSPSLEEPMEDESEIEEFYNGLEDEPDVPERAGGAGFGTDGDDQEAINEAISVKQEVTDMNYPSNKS

SIRT3 = target: T2, SIRT3 (Homo sapiens, UniProt Q9NTG7); set-up: method as in PMID 25395356; conditions: reported earlier; cited from earlier work
T2 sequence (Q9NTG7 1-399): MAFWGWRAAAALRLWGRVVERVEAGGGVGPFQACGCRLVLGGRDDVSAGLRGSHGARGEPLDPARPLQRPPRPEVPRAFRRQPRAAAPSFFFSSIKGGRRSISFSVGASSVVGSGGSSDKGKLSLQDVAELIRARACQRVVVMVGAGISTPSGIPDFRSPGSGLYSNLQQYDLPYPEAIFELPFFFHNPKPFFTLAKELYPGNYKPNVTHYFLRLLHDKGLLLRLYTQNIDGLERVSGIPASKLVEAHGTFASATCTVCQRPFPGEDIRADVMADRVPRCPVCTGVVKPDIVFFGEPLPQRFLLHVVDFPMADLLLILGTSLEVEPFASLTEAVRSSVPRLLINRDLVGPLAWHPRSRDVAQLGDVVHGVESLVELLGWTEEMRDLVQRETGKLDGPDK

SIRT5 = system: SIRT5; set-up: method as in PMID 25395356; conditions: cited from earlier work

**Q.** For `COc1ccc2ccccc2c1Cn1cnc2sc3c(c2c1=O)CCC(NCc1cccnc1)C3` (stereo not drawn) [19a], which “effect on α-tubulin acetylation level” value [1] is on record?
**A.** The value was “showed increased acetylated α-tubulin level at 20 μM and decreased level at 50 μM”.

**Q.** And the neuroprotection [2]?
**A.** The neuroprotection was “showed neuroprotection”.

**Q.** And the SIRT2/SIRT1 selectivity (SIRT1)?
**A.** The SIRT2/SIRT1 selectivity was greater than 100.

**Q.** And the SIRT2/SIRT3 selectivity (SIRT3)?
**A.** Its SIRT2/SIRT3 selectivity is greater than 100.

**Q.** What about the IC50 (SIRT5; Figure 1) of the same molecule?
**A.** Its IC50 is greater than 100 µM.

**Q.** What about the “selectivity for SIRT2 in comparison to SIRT5” value (SIRT5; previous study) of the same molecule?
**A.** Its value is “more than 100”.
